Legend:
[1] = test system: ocular mucosal fibrosis; test: Murine model of ocular mucosal fibrosis (OVA induced); assay type: in vivo, mice
Protocol: Female […] mice 8-10 week of age were used for all experiments. The mice were housed in the institute's vivarium in compliance with the Animal Research Committee. Immune-mediated conjunctivitis was induced in by i.p. injection of 200 μl of immunization mix containing: 10 μg Ovalbumin (OVA) (Sigma-Aldrich), 4 mg aluminium hydroxide (Thermo Scientific), and 300 ng of pertussis toxin (Sigma-Aldrich). After 2 weeks, mice received topical OVA challenge ([…]) once a day for 7 days for the development of fibrosis. To evaluate the efficacy of AA5 in preventing fibrosis, topical OVA challenge was accompanied by addition of 1, 10, 100 or 1000 ug/mouse (n=12) AA5 administered in both eyes in a volume of 5 ul for a total of 7 days.
To evaluate the efficacy of AA5 in resolving fibrosis, topical OVA challenge was continued for an additional 7 days (days 14-21) after the initial OVA sensitization for the development of fibrosis. From day 21 to 28, OVA challenge was accompanied by addition of 1, 10, 100 or 1000 ug/mouse (n=12) AA5. 1% DMSO administered in both eyes in a 5 µl volume of PBS was used as control. Both eyes were scored in the same manner. For the scoring, a cumulative score of eyelid swelling (out of 3) and tearing (out of 3) was taken. At the end of the experiment at day 21 (prevention studies) or […] (resolution studies), mice were sacrificed and whole eyes were collected, fixed in 10% (v/v) formalin and processed by the standard methods for paraffin embedding. Sections (5 μm) were stained with Gomori Trichrome and H&E and imaged. Tissue sections were reviewed by 4 independent observers, including two observers who were blinded to the groups—a pathologist and another researcher. Conjunctivae were dissected from whole eyes and either processed for RNA or hydroxyproline.
Conjunctiva or LSCs were boiled in 50 μl or 400 μl of 6 M HCl, respectively at 100° C. overnight. Hydroxyproline levels were measured in the acid hydrolysis method using a kit from Biovision Inc. (Milpitas, Calif.) using the manufacturer's instructions. […]

[2] = test system: HMGB1; test: HMGB1 (ELISA, IF) in the iFA model; assay type: cell-based, human
Protocol: (§1) Conditioned media at different time points of progression of the phenotype, and on prevention and resolution drug treatments were collected and quantification of protein was performed using the IBL man HMGB1 ELISA kit or LSBio NPTX1 ELISA kits per manufacturer's instructions. 10 μl of each supernatant sample was added to anti-HMGB1 polyclonal antibody-coated plate and incubated for 20 hours at 37° C. All liquid was then removed and the plate manually washed 5 times with wash buffer. 100 μl of enzyme conjugate was then added and incubated for 2 hours at room temperature. After washing again, color solution was added at 100 μl per well and incubated for 30 minutes at room temperature. Following an additional five washes, the plate was incubated with 90 μl of TMB substrate for another 15 minutes at 37° C. in the dark. The reaction was then stopped by addition 100 μl of stop solution. Absorbance was measured at 450 nm using a SpectraMAX Plate Reader. Data was analyzed using SoftMax Pro software.
Cells grown on coverslips were fixed in 4% paraformaldehyde (PFA) for 10 min at room temperature and washed three times with TBS buffer supplemented with 0.1% Tween 20 (TBST). Lung samples were fixed overnight in 4% PFA at room temperature, washed 3 times in PBS, dehydrated and then infiltrated and embedded with wax. Five-micron sections were collected on glass slides, deparaffinized and rehydrated. […]

[3] = test system: Idiopathic Pulmonary Fibrosis patient lung slices; test: Ex vivo fibrotic lung slice culture (LSC) system; assay type: cell-based, human
Protocol: The Milliplex human cytokine/chemokine Panel IV, human TIMP Panel 2, and human TGFβ 1,2,3 magnetic bead kits (EMD Millipore) were used per manufacturer's instructions. Prior to plating, all samples tested for human TGFβ only were activated and neutralized with 1.0 N HCl and 1.0 N NaOH, respectively. Briefly, 25 μl of undiluted or treated cell culture supernatant samples were mixed with 25 μl of magnetic beads and allowed to incubate overnight at 4° C. while shaking. After washing the plates with wash buffer in a Biotek ELx405 washer, 25 μl of biotinylated detection antibody was added and incubated for 1 hour at room temperature while shaking. 25 μl of streptavidin-phycoerythrin conjugate was then added to the reaction mixture and incubated for another 30 minutes at room temperature while shaking. Following additional washes, beads were resuspended in sheath fluid, and fluorescence was quantified using a Luminex 200 instrument. Similarly, a custom magnetic Luminex assay kit of select analytes (R&D Systems) was used per manufacturer's instructions. Cell culture supernatants were prepared with a 2-fold dilution. 50 μl of diluted sample were added to 50 μl of provided micro-particle cocktail and incubated for 2 hours at room temperature while shaking. After washing with wash buffer, 50 μl of biotin antibody cocktail was added and incubated for 1 hour at room temperature while shaking. Following additional washes, 50 μl of diluted Streptavidin-PE was then added for incubation for 30 minutes at room temperature while shaking. The plate was then washed again and the micro-particles resuspended in 100 μl wash buffer. After an additional 2-minute incubation while shaking, the data was acquired using a Luminex 200 instrument.
as §1
In-vitro cultures of PF and cells in the iFA model were washed once with PBS and total RNA from the samples were extracted using the RNeasy Mini Kit (Qiagen) according to the manufacturer's instructions. For the lung slice cultures (LSC), tissues were snap-frozen after treatment and stored at −80° C. until RNA isolation. Lung slices were homogenized using a handheld homogenizer and passing the homogenate through a Qiashredder (Qiagen). Total RNA from the LSC and cells from the disease model were extracted using the RNeasy Mini Kit (Qiagen) according to the manufacturer's instructions. The RNA concentrations were measured on a NanoDrop ND-1000 spectrophotometer. Single-stranded cDNA was synthesized from 200 ng of total RNA using Superscript IV and random hexamer primers (Invitrogen) in a volume of 20 μl. cDNA was then used for qRT-PCR analysis. PCR reactions were performed using Taqman Gene Expression Assay mix (Applied Biosystems) according to the manufacturer's instructions.
All human samples were obtained in accordance with institute IRB. Tissue for lung slice experiments was obtained from patients with Idiopathic Pulmonary Fibrosis (IPF) at the time of lung transplant. […]

Cc1c(C(=O)Nc2nc3ccccc3s2)sc2nc3cc4c(cc3cc12)OCO4 [AA5]
Gomori Trichrome sections of whole eyes: conjunctiva thickness and collagen deposition ([1]; AA5 1000 ug): qualitatively decreased thickness of conjunctiva and collagen deposition
Collagen content of the conjunctivae ([1]; AA5-prevention and AA5-resolution at 0.1 and 1 mg doses): significant reduction
Clinical swelling, tearing and inflammation of eyes ([1]; topical, preventive and resolutive treatments, vs DMSO-treated eyes): less clinical swelling, tearing and inflammation
Cytoplasmic HMGB1 (IF staining) ([2]; AA5-prevention and AA5-resolution vs DMSO): absence or significantly reduced cytoplasmic HMGB1
Secreted levels of HMGB1 ([2]; iFA model, AA5p and AA5r vs DMSO): attenuated
Secretion of matrix degrading proteases MMP-9 and uPA ([3]; 10 μM AA5, 48 hours): increased secretion
ACTA-2, COL1A2 and TGF-β3 mRNA expression ([3]; 10 μM AA5, 48 hours, vs DMSO, not TGF-β1/2): significantly reduced
Secreted TGF-β3, TIMP-4 and POSTN protein ([3]; 10 μM AA5, 48 hours, not TGF-β1/2): decreased levels
NPTX1 mRNA and protein level ([3]; AA5-treated LSCs): upregulated
Scavenger receptor CD163L1 ([3]; AA5-treated LSCs): upregulated and secreted
HMGB1 immunostaining ([3]; AA5-treated LSCs vs DMSO): exclusively nuclear staining
Secreted HMGB1 (luminex) ([3]; AA5-treated LSCs, 48 hours): markedly decreased
Reduction of fibrosis-initiating SSEA4+ cells ([3]; AA5-treated LSCs, p value <0.001): > 50%

Source: US20200352918A1, “COMPOUNDS AND METHODS FOR TREATING OR PREVENTING FIBROSIS” (priority 2019, published 2020)
